Drawing on patent US20230219986A1, “NOVEL AMINOPYRIMIDINE EGFR INHIBITOR” (QILU PHARMACEUTICAL CO., LTD., priority 2020, published 2023), this text covers GI50 and IC50 for 20 compounds.

The target in experiment [1] is Ba/F3 L858R/T790M/C797S EGFR triple mutant cell line (Homo sapiens, UniProt P00533, T790M/C797S/L858R, cells depend on it). In words: Cell proliferation inhibition experiment (CellTiter-Glo), Ba/F3 L858R/T790M/C797S. Type of experiment: cell-based. Particulars: 72 hours, Cell Titer-Glo, read-out: Ba/F3 (L858R/T790M/C797S) IC50. In general terms: Cellular ATP, detected with luciferase, serves as a proxy for viable cell number.

Experiment [2] deals with T1, wild-type EGFR (Homo sapiens, UniProt P00533).
T1 construct: purchased Signalchem
In words: Enzymology experiment in vitro (HTRF/FRET kinase activity), wild-type EGFR. Format: biochemical. The settings on record: HTRF KinEASE-TK, read-out: EGFR (WT) IC50. The essentials: (§1)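 HTRF KinEASE-TK format: EGFR enzyme preincubated with compound 10 min at room temperature, then peptide substrate plus ATP added for 40 min. Detection with EDTA, XL665-streptavidin and Eu³⁺-labeled antibody for 1 h.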

The target in experiment [3] is Ba/F3 De119/T790M/C797S EGFR triple mutant cell line (Homo sapiens, UniProt P00533, T790M/C797S, cells depend on it, form not given). Kind of experiment: Cell proliferation inhibition experiment (CellTiter-Glo), Ba/F3 De119/T790M/C797S. Type of experiment: cell-based. The settings on record: Ba/F3 Del19/T790M/C797S EGFR triple mutant cells, 72 hours, Cell Titer-Glo; read-out: Ba/F3 (Del19/T790M/C797S) IC50.

For experiment [4], the system named is EGFR wild-type cell line A431. Kind of experiment: Cell proliferation inhibition experiment (CellTiter-Glo), A431. Format: cell-based. Particulars: Homo sapiens, A-431, 72 h, A431 cells, Cell Titer-Glo, read-out: A431 EGFR WT IC50. An outline of the steps: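 A431 cells, 800 per well, were cultured 24 h and then exposed to serially diluted compound (0.1% DMSO final) for 72 h at 37° C., 5% CO2.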

Experiment [5] concerns the target T2, L858R/T790M/C797S triple mutant EGFR (Homo sapiens, UniProt P00533, C797S/L858R/T790M).
T2 construct: purchased Signalchem
Kind of experiment: Enzymology experiment in vitro (HTRF/FRET kinase activity), L858R/T790M/C797S triple mutant EGFR. Format: biochemical. Particulars: HTRF KinEASE-TK, read-out: EGFR (L858R/T790M/C797S) IC50. An outline of the steps: as §1

Ba/F3 L858R/T790M/C797S EGFR triple mutant cell line, sequence (P00533 whole entry T790M/C797S/L858R): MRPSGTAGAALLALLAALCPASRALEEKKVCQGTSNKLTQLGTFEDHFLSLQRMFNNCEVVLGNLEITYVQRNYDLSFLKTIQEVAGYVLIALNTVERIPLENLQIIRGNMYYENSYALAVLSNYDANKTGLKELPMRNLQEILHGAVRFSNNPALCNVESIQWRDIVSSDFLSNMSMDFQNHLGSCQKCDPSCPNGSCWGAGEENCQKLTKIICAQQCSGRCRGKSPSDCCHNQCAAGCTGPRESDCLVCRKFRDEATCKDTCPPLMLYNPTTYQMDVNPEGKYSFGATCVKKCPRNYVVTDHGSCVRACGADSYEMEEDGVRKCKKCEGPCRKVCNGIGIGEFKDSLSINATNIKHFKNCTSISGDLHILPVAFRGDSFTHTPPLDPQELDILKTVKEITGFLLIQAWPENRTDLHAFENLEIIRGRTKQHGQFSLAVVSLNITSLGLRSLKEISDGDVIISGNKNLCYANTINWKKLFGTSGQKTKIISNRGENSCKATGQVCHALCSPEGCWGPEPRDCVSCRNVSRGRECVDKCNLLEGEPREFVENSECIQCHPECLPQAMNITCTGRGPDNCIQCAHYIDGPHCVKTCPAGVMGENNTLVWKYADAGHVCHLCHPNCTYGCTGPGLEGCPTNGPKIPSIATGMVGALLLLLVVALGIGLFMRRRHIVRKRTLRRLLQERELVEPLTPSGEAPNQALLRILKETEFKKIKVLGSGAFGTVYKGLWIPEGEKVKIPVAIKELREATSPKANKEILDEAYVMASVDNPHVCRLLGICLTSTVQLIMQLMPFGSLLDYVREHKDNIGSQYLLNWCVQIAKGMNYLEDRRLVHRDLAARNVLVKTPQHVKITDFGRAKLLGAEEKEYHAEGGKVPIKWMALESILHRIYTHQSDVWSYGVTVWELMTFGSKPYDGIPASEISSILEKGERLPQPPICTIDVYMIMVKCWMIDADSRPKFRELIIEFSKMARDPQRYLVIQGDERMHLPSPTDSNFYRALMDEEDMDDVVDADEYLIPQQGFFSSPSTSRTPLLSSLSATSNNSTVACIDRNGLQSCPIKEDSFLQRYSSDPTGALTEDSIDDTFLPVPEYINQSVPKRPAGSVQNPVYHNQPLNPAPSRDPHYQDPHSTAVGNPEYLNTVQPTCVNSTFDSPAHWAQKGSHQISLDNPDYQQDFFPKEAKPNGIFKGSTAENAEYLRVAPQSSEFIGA
T2 sequence (P00533 25-1210 T790M/C797S/L858R): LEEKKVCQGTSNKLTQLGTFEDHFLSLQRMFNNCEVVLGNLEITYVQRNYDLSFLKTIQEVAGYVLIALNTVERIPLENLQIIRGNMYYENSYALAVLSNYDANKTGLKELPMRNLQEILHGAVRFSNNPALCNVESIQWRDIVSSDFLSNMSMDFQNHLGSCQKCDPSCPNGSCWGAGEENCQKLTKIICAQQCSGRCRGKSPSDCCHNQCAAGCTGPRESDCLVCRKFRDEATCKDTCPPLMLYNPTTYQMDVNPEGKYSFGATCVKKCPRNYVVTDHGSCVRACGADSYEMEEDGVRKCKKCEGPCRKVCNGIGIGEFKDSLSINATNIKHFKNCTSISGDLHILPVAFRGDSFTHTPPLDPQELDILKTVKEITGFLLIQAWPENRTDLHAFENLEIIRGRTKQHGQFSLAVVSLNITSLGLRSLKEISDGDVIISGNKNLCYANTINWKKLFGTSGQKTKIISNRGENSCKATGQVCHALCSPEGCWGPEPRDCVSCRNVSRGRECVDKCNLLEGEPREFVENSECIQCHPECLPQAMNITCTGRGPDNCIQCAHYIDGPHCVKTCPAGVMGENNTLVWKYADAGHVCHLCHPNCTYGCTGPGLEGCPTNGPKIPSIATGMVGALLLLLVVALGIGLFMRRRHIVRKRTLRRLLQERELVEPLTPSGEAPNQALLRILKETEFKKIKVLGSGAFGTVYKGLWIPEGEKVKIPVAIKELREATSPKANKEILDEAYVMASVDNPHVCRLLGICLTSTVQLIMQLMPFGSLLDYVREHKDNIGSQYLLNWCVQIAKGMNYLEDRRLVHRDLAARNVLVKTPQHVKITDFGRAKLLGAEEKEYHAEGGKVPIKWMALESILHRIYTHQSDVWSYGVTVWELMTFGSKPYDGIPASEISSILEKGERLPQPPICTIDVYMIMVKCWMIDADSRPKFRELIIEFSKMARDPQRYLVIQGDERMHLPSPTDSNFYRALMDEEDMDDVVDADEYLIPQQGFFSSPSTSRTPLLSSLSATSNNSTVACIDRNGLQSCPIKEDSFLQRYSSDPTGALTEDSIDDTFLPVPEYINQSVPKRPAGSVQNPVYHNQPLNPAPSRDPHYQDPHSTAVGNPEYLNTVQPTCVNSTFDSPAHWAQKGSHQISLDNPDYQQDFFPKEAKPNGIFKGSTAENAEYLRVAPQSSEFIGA
Ba/F3 De119/T790M/C797S EGFR triple mutant cell line, sequence (P00533 with tags, fused parts or gaps DEL746-750/T790M/C797S, form open): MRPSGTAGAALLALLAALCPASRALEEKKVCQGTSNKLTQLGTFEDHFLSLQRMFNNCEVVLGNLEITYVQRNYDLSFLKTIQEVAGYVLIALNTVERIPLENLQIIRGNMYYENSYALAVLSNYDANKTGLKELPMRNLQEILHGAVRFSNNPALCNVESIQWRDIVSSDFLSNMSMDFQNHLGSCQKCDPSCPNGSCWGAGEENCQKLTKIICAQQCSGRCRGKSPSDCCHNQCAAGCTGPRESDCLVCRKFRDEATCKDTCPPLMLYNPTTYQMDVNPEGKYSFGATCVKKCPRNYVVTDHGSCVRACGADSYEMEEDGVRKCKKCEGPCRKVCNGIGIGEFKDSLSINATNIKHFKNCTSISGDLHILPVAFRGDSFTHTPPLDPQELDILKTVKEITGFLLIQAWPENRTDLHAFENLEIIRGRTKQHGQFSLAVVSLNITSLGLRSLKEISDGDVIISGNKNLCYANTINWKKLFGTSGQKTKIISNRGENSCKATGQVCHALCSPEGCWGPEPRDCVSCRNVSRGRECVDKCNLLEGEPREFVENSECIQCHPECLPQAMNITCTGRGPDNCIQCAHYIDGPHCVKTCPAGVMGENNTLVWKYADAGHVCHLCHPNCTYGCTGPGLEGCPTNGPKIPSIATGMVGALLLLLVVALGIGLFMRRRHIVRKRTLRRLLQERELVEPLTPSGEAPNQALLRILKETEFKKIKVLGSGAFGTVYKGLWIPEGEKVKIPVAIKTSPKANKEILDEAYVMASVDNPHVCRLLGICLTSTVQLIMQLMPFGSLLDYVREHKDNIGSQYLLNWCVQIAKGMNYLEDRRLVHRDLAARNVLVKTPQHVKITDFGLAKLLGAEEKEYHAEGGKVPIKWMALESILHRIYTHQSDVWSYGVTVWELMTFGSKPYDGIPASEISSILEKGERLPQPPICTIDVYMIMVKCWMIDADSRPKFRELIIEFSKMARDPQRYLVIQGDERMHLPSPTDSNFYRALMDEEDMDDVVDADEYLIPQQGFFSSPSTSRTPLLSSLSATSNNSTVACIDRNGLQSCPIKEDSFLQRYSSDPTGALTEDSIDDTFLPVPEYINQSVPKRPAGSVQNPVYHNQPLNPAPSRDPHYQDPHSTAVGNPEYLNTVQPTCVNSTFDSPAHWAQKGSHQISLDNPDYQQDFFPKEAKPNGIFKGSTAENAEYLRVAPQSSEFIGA
T1 sequence (P00533 25-1210): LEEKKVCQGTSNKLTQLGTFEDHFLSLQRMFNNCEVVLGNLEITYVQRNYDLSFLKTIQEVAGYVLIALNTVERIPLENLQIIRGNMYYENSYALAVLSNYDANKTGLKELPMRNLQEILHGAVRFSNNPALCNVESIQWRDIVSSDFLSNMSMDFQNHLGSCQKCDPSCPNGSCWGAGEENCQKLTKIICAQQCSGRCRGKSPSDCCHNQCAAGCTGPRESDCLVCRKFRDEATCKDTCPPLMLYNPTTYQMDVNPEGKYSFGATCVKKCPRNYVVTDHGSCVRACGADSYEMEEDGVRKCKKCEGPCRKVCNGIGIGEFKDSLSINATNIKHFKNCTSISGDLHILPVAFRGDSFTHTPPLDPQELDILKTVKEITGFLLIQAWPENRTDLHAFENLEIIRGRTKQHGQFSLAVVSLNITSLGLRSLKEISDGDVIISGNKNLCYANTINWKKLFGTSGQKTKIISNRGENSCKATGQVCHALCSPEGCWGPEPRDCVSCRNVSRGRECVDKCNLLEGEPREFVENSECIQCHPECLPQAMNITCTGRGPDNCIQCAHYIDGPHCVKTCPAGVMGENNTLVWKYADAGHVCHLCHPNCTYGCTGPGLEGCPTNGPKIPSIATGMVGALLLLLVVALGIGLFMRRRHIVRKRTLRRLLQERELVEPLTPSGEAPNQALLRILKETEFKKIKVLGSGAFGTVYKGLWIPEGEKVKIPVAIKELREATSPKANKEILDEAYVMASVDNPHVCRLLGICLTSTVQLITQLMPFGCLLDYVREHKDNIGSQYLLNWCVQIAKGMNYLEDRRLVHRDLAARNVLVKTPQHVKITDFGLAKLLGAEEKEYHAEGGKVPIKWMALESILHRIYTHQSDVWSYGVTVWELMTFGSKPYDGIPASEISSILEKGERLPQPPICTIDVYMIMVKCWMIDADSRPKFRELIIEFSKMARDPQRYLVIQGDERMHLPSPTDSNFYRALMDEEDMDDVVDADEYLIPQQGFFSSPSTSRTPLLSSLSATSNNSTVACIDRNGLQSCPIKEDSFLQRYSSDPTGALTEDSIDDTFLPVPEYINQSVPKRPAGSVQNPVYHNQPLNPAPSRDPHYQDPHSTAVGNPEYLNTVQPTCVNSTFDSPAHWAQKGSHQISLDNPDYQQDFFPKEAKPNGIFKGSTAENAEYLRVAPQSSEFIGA

Consider `COc1cc(N2CCC(N3CCN(C)C(C)C3)CC2)c(-c2cnn(C)c2)cc1Nc1ncc(Br)c(Nc2ccc3nccnc3c2P(C)(C)=O)n1` (stereo not shown) [compound 193], for which the GI50 in experiment [1] came to 9.83 nM; in experiment [3] it was 4.48 nM. Besides, the IC50 in experiment [2] was 0.99 nM; in experiment [4] it was 59.9 nM; in experiment [5], 0.27 nM.

As for `COc1cc(N2CCC3(CC2)CN(C)CCN3C)c(-c2cnn(C)c2)cc1Nc1ncc(Br)c(Nc2ccc3nccnc3c2P(C)(C)=O)n1` [compound 194], the values for the GI50 in experiment [1] and in experiment [3] were 16.4 nM and 5.56 nM, respectively. In addition, the IC50 in experiment [2] was 2.85 nM; in experiment [4], 79.5 nM; in experiment [5], 0.17 nM.

For the compound `COc1cc(N2CCC3(CC2)CN(C)CCO3)c(-c2cnn(C)c2)cc1Nc1ncc(Br)c(Nc2cc3c(cc2N(C)S(C)(=O)=O)CC3)n1` [compound 195], the results for the GI50 in experiment [1] and in experiment [3] were 12.5 nM and 7.7 nM, respectively. Moreover, the IC50 came to 8.52 nM in experiment [2], 415 nM in experiment [4] and 2.33 nM in experiment [5].

`COc1cc(N2CCC3(CCN(C)CC3)CC2)c(-c2cnn(C)c2)cc1Nc1ncc(Br)c(Nc2cc3c(cc2N(C)S(C)(=O)=O)CC3)n1` [compound 196]: the values for the GI50 in experiment [1] and in experiment [3] were 20.8 nM and 12.3 nM, respectively. The results for the IC50 in experiment [2], in experiment [4] and in experiment [5] were 3.35 nM, 356 nM and 0.59 nM, respectively.

On to `COc1cc(N2CCC(N3CC(C)N(C)C(C)C3)CC2)c(-c2cnn(C)c2)cc1Nc1ncc(Br)c(Nc2ccc3nccnc3c2P(C)(C)=O)n1` (stereo not shown) [compound 197], for which the GI50 turned out to be 14.3 nM in experiment [1] and 7.7 nM in experiment [3]. Moreover, the IC50 in experiment [2] was 0.62 nM; in experiment [4] it was 95.6 nM; in experiment [5], 0.25 nM.

On to `COc1cc(N2CCC(OCCN(C)C)CC2)c(-c2cnn(C)c2)cc1Nc1ncc(Br)c(Nc2ccc3nccnc3c2P(C)(C)=O)n1` [compound 198], for which the figures for the GI50 in experiment [1] and in experiment [3] were 9.49 nM and 4.26 nM, respectively. In addition, the IC50 in experiment [2] amounted to 0.62 nM; in experiment [4], 38 nM; in experiment [5], 0.22 nM.

Turning to `CN1CCN(c2noc3c(Nc4ncc(Br)c(Nc5ccc6nccnc6c5P(C)(C)=O)n4)cc(-c4cnn(C)c4)cc23)CC1` [compound 200], the figures for the GI50 in experiment [1] and in experiment [3] were 22 nM and 7.47 nM, respectively. Moreover, the IC50 in experiment [2] was determined as 7.56 nM; in experiment [4] it was 69.6 nM; in experiment [5], 0.19 nM.

For `COc1cc(N2CCC3(CC2)CN(C(C)C)CCO3)c(-c2cnn(C)c2)cc1Nc1ncc(Br)c(Nc2ccc3nccnc3c2P(C)(C)=O)n1` [compound 202], the results for the GI50 in experiment [1] and in experiment [3] were 3.75 nM and 2.93 nM, respectively. The IC50 in experiment [2] was 3.74 nM; in experiment [4], 91.3 nM; in experiment [5], 0.59 nM.

Consider `COc1cc(N2CCC3(CCOC3)C2)c(-c2cnn(C)c2)cc1Nc1ncc(Br)c(Nc2ccc3nccnc3c2P(C)(C)=O)n1` (stereo not shown) [compound 203], for which the GI50 in experiment [1] was determined as 20 nM; in experiment [3], 10.6 nM. Moreover, the IC50 in experiment [2] came to 21.2 nM; in experiment [4], 351 nM; in experiment [5], 0.47 nM.

Take `COc1cc(N2CCC(N3CC(CF)C3)CC2)c(-c2cnn(C)c2)cc1Nc1ncc(Br)c(Nc2ccc3nccnc3c2P(C)(C)=O)n1` [compound 204]: the GI50 in experiment [1] was 11.2 nM; in experiment [3], 5.19 nM. In addition, the figures for the IC50 in experiment [2], in experiment [4] and in experiment [5] were 1.57 nM, 66.9 nM and 0.25 nM, respectively.

`COc1cc(N2CCC3CCN(CCF)C3C2)c(-c2cnn(C)c2)cc1Nc1ncc(Br)c(Nc2ccc3nccnc3c2P(C)(C)=O)n1` (stereo not shown) [compound 205, (6-((5-Bromo-2-((4-(1-(2-fluoroethyl)octahydro-6H-pyrrolo[2,3-c]pyridin-6-yl)-2-methoxy-5-(1-methyl-1H-pyrazol-4-yl)phenyl)amino)pyrimidin-4-yl)amino)quinoxalin-5-yl)dimethylphosphine oxide]: the figures for the GI50 in experiment [1] and in experiment [3] were 8.9 nM and 3.2 nM, respectively. For the same compound, the IC50 in experiment [2] turned out to be 3.08 nM; in experiment [4], 116 nM; in experiment [5] it was 0.35 nM.

Turning to `COc1cc(N2CCC3CCN(CCOC(C)C)C3C2)c(-c2cnn(C)c2)cc1Nc1ncc(Br)c(Nc2ccc3nccnc3c2P(C)(C)=O)n1` (stereo not shown) [compound 206], the GI50 in experiment [1] was 30.2 nM; in experiment [3] it was 7.62 nM. Besides, the IC50 in experiment [2] stood at 8.46 nM; in experiment [4] it was 298 nM; in experiment [5], 0.62 nM.

For the compound `COc1cc(N2CCC3(CC2)COCCN3C)c(-c2cnn(C)c2)cc1Nc1ncc(Br)c(Nc2cc3c(cc2N(C)S(C)(=O)=O)CC3)n1` [compound 208], the results for the GI50 in experiment [1] and in experiment [3] were 14.6 nM and 9.45 nM, respectively. The IC50 in experiment [2] was determined as 5.79 nM; in experiment [4], 348 nM; in experiment [5] it was 0.57 nM.

Consider `COc1cc(N2CCC(N3CCN(CCF)CC3)CC2)c(-c2cnn(C)c2)cc1Nc1ncc(Br)c(Nc2ccccc2N(C)S(=O)(=O)C2CC2)n1` [compound 209], for which the GI50 in experiment [1] came out at 12.6 nM; in experiment [3] it was 7.18 nM. Further, the IC50 came out at 9.74 nM in experiment [2], 171 nM in experiment [4] and 0.73 nM in experiment [5].

For the compound `COc1cc(N2CCC(N3CCN(C)CC3)C(F)C2)c(-c2cnn(C)c2)cc1Nc1ncc(Br)c(Nc2ccccc2N(C)S(=O)(=O)C2CC2)n1` (stereo not shown) [compound 211], the GI50 in experiment [1] came to 24.8 nM; in experiment [3], 14.3 nM. Besides, the IC50 stood at 10.9 nM in experiment [2], 354 nM in experiment [4] and 0.61 nM in experiment [5].

As for `COc1cc(N2CCC(N3CCOCC3)CC2)c(-c2cnsc2)cc1Nc1ncc(Br)c(Nc2ccc3nccnc3c2P(C)(C)=O)n1` [compound 212], the GI50 in experiment [1] amounted to 25.1 nM; in experiment [3] it was 9.29 nM. Besides, the IC50 in experiment [2] came out at 18.9 nM; in experiment [4], 179 nM; in experiment [5] it was 0.33 nM.

On to `COc1cc(N2CCC(N3CCOCC3)C(F)C2)c(-c2cnn(C)c2)cc1Nc1ncc(Br)c(Nc2ccc3nccnc3c2P(C)(C)=O)n1` (stereo not shown) [compound 214], for which the GI50 worked out at 4.87 nM in experiment [1] and 1.47 nM in experiment [3]. The IC50 in experiment [2] is 1.86 nM; in experiment [4] it was 139 nM; in experiment [5] it was 0.36 nM.

Consider `COc1cc(N2CCC3(CCOCC3)CC2)c(-c2cnn(C)c2)cc1Nc1ncc(Br)c(Nc2ccc3nccnc3c2P(C)(C)=O)n1` [compound 215], for which the results for the GI50 in experiment [1] and in experiment [3] were 5.58 nM and 2.23 nM, respectively. In addition, the IC50 in experiment [2] worked out at 7.3 nM; in experiment [4] it was 227 nM; in experiment [5], 0.25 nM.

In the case of `COc1cc(N2CCC(N(C)C)C(F)C2)c(-c2cnn(C)c2)cc1Nc1ncc(Br)c(Nc2ccc3nccnc3c2P(C)(C)=O)n1` (stereo not shown) [compound 216], the GI50 in experiment [1] was determined as 7.32 nM; in experiment [3], 2.06 nM. Besides, the IC50 turned out to be 1.71 nM in experiment [2], 45.7 nM in experiment [4] and 0.29 nM in experiment [5].

For `COc1cc(N2CCN(CC3COC3)CC2)c(-c2cnn(C)c2)cc1Nc1ncc(Br)c(Nc2ccc3nccnc3c2P(C)(C)=O)n1` [compound 219, (6-((5-Bromo-2-((2-methoxy-5-(1-methyl-1H-pyrazol-4-yl)-4-(4-(oxetan-3-ylmethyl)piperazin-1-yl)phenyl)amino)pyrimidin-4-yl)amino)quinoxalin-5-yl)dimethylphosphine oxide], the GI50 in experiment [1] turned out to be 1.08 nM; in experiment [3] it was 1.1 nM. Further, the IC50 in experiment [2] is 1.66 nM; in experiment [4] it was 32.1 nM; in experiment [5], 0.12 nM.
